Counter-ions that a name gives are not always drawn.
Key:
BCL6 = target: T1, BCL6 (Homo sapiens, UniProt P41182); assay: HiBiT cellular degradation assay in Su-DHL-4 cells; format: cell-based; conditions: concentration to reach 50% degradation of endogenous SmBiT-tagged BCL6, 24 hours of compound treatment
T1 construct: Endogenous BCL6 was tagged with the 11-amino acid SmBiT through CRISPR/Cas9 gene editing; endogenous in cells; host or cells: Su-DHL-4 (CRISPR/Cas9 knock-in, single cell clone)
Description: DC50 (concentration to reach 50% degradation) values were determined from a cellular degradation assay (HiBiT, Promega™) in Su-DHL-4 cells (Table 1). Endogenous BCL6 was tagged with the 11-amino acid SmBiT through CRISPR/Cas9 gene editing and single cell clone selection. After 24 hours of compound treatment, cells were lysed and incubated with LgBiT protein to reconstitute intact nanoluciferase. Substrate was then added and relative luciferase units were measured. Degradation levels for each treatment were taken as a percentage compared to the control, 100% DMSO (Prism).

Su-DHL-4 cells = assay: CellTiter-Glo cell proliferation, BCL6 degrader with EZH2 inhibitors; format: cell-based
Description: Enhancer of zeste homolog 2 (EZH2) is a member of the polycomb repressive complex 2 (PRC2) that methylates histone 3 lysine 27, a mark that is associated with gene repression.
To ensure HiBiT signal decrease was due to BCL6 degradation and not from dying cells, CellTiter-Glo® (CTG, Promega™) was performed on the same number of cells that were treated for 24 hours with BCL6 degraders. To study the anti-proliferative effects of BCL6 degraders and its synergistic effect with EZH2 inhibitors, Su-DHL-4 and other DLBCL cells were treated with the compounds at DC99, DC75, DC50, or 1 μM followed by 5 days of culture, at which point CTG values and/or Caspase3/7 activities were measured as percent DMSO treated.

DC50 (BCL6) [nM]	SMILES	other results
101	C[C@@H]1CN(c2nc(Nc3ccc4c(c3)n(C[C@@H]3CNC(=O)O3)c(=O)n4C)c(F)cc2C#N)C[C@H](C)[C@@H]1F [Compound 87, 5-Fluoro-2-[(3S,4S,5R)-4-fluoro-3,5-dimethyl-1-piperidyl]-6-[[1-methyl-2-oxo-3-[[(5S)-2-oxooxazolidin-5-yl]methyl]benzimidazol-5-yl]amino]pyridine-3-carbonitrile]	
3	CNC(=O)COc1cc2cc(Nc3ncc(C#N)c(N4C[C@H](CCO)C(F)(F)[C@H](C)C4)n3)ccc2n(C)c1=O [Compound 3, 2-((6-((5-Cyano-4-((3S,5R)-4,4-difluoro-3-(2-hydroxyethyl)-5-methylpiperidin-1-yl)pyrimidin-2-yl)amino)-1-methyl-2-oxo-1,2-dihydroquinolin-3-yl)oxy)-N-methylacetamide]	
80	C[C@@H]1CN(c2nc(Nc3ccc4c(c3)n(C[C@@H]3COC(=O)N3)c(=O)n4C)c(F)cc2C#N)C[C@H](C)[C@@H]1F [Compound 88, 5-Fluoro-2-((3S,4S,5R)-4-fluoro-3,5-dimethylpiperidin-1-yl)-6-((1-methyl-2-oxo-3-(((R)-2-oxooxazolidin-4-yl)methyl)-2,3-dihydro-1H-benzo[d]imidazol-5-yl)amino)nicotinonitrile]	
31	C[C@H]1CN(c2nc(Nc3ccc4c(c3)n(CCC(C)(C)O)c(=O)n4C)c(F)cc2C#N)C[C@@H](N)C1(F)F [Compound 81, 2-((3R,5S)-3-Amino-4,4-difluoro-5-methylpiperidin-1-yl)-5-fluoro-6-((3-(3-hydroxy-3-methylbutyl)-1-methyl-2-oxo-2,3-dihydro-1H-benzo[d]imidazol-5-yl)amino)nicotinonitrile hydrochloride]	
> 400	C[C@H]1CN(c2nc(Nc3ccc4c(c3)n(C[C@H]3COC(=O)N3)c(=O)n4C)c(F)cc2C#N)C[C@@H](N)C1(F)F [Compound 61, 2-((3R,5S)-3-amino-4,4-difluoro-5-methylpiperidin-1-yl)-5-fluoro-6-((1-methyl-2-oxo-3-(((S)-2-oxooxazolidin-4-yl)methyl)-2,3-dihydro-1H-benzo[d]imidazol-5-yl)amino)nicotinonitrile]	
> 400	C[C@H]1CN(c2nc(Nc3ccc4c(c3)n(CCC(C)(C)O)c(=O)n4C)c(Cl)cc2C#N)C[C@@H](N)C1(F)F (single isomer, unassigned) [Compound 49]	
9	CNC(=O)COc1cc2cc(Nc3nc(N4C[C@@H](C)[C@@H](O)[C@@H](C)C4)c(C#N)cc3Cl)ccc2n(CCN(C)C)c1=O [Compound 73, 2-((6-((3-chloro-5-cyano-6-((3S,4S,5R)-4-hydroxy-3,5-dimethylpiperidin-1-yl)pyridin-2-yl)amino)-1-(2-(dimethylamino)ethyl)-2-oxo-1,2-dihydroquinolin-3-yl)oxy)-N-methylacetamide]	
12	CNC(=O)COc1cc2cc(Nc3nc(N4C[C@H](C)C[C@H](C(=O)O)C4)c(C#N)cc3Cl)ccc2n(C)c1=O [Compound 79, (3S,5R)-1-(5-chloro-3-cyano-6-((1-methyl-3-(2-(methylamino)-2-oxoethoxy)-2-oxo-1,2-dihydroquinolin-6-yl)amino)pyridin-2-yl)-5-methylpiperidine-3-carboxylic acid]	
102	C[C@@H]1CN(c2nc(Nc3ccc4c(c3)n(C[C@H]3COC(=O)N3)c(=O)n4C)c(F)cc2C#N)C[C@H](C)[C@@H]1F [Compound 89, 5-Fluoro-2-((3S,4S,5R)-4-fluoro-3,5-dimethylpiperidin-1-yl)-6-((1-methyl-2-oxo-3-(((S)-2-oxooxazolidin-4-yl)methyl)-2,3-dihydro-1H-benzo[d]imidazol-5-yl)amino)nicotinonitrile]	
6	CNC(=O)COc1cc2cc(Nc3nc(N4C[C@@H](C)[C@@H](F)[C@@H](C)C4)c(C#N)cc3Cl)ccc2n(CCN)c1=O [Compound 66, 2-((1-(2-Aminoethyl)-6-((3-chloro-5-cyano-6-((3S,4S,5R)-4-fluoro-3,5-dimethylpiperidin-1-yl)pyridin-2-yl)amino)-2-oxo-1,2-dihydroquinolin-3-yl)oxy)-N-methylacetamide]	
70	CNC(=O)COc1cc2cc(Nc3nc(N4C[C@@H](N)C(F)(F)[C@@H](C)C4)c(C#N)cc3Cl)ccc2n(C)c1=O [Compound 44, 2-((6-((6-((3R,5S)-3-amino-4,4-difluoro-5-methylpiperidin-1-yl)-3-chloro-5-cyanopyridin-2-yl)amino)-1-methyl-2-oxo-1,2-dihydroquinolin-3-yl)oxy)-N-methylacetamide]	
> 400	CNC(=O)COc1cc2cc(Nc3nc(N4C[C@@H](C)C[C@@H](C(=O)O)C4)c(C#N)cc3Cl)ccc2n(C)c1=O [Compound 78, (3R,5S)-1-(5-chloro-3-cyano-6-((1-methyl-3-(2-(methylamino)-2-oxoethoxy)-2-oxo-1,2-dihydroquinolin-6-yl)amino)pyridin-2-yl)-5-methylpiperidine-3-carboxylic acid]	
	COc1cc(C)[nH]c(=O)c1CNC(=O)c1c(C)n([C@H](C)C2CCN(CC(F)(F)F)CC2)c2ccccc12 [Lira, Lirametostat, reference compound]	reduction of BCL6 degrader dose requirement to achieve GI60 (Su-DHL-4 cells; EZH2 inhibitor at 480 nM added to BCL6 degrader (compound 1), Su-DHL-4 cells, 60% growth inhibition): around 4.3 fold
13	CNC(=O)COc1cc2cc(Nc3nc(N4C[C@@H](C)C(F)(F)[C@@H](C)C4)c(C#N)cc3Cl)ccc2n(CC2CCO2)c1=O (stereo partly drawn) [Compound 6, 2-((6-((3-Chloro-5-cyano-6-((3R,5S)-4,4-difluoro-3,5-dimethylpiperidin-1-yl)pyridin-2-yl)amino)-1-(oxetan-2-ylmethyl)-2-oxo-1,2-dihydroquinolin-3-yl)oxy)-N-methylacetamide]	
> 400	C[C@H]1CN(c2nc(Nc3ccc4c(c3)n(CCC(C)(C)O)c(=O)n4C)c(Cl)cc2C#N)C[C@@H](O)[C@H]1F [Compound 51, 5-chloro-2-((3R,4S,5S)-4-fluoro-3-hydroxy-5-methylpiperidin-1-yl)-6-((3-(3-hydroxy-3-methylbutyl)-1-methyl-2-oxo-2,3-dihydro-1H-benzo[d]imidazol-5-yl)amino)nicotinonitrile]	
6	CNC(=O)COc1cc2cc(Nc3ncc(C#N)c(N4C[C@@H](C)C(F)(F)[C@@H](C)C4)n3)ccc2n(C)c1=O [Compound 1, 2-((6-((5-cyano-4-((3S,5R)-4,4-difluoro-3,5-dimethylpiperidin-1-yl)pyrimidin-2-yl)amino)-1-methyl-2-oxo-1,2-dihydroquinolin-3-yl)oxy)-N-methylacetamide]	excess over Bliss (eob) score (Su-DHL-4 cells; compound 1 (50 nM to 2 nM) added 48 hours after Tazemetostat or Lirametostat (10 μM to 5 nM), read five days later, over most of the concentration range): > 1; average synergy score (SynergyFinder) (Su-DHL-4 cells; compound 1 with Tazemetostat or Lirametostat, Su-DHL-4 cells, over most of the concentration range): over 10
33	C[C@@H]1CN(c2nc(Nc3ccc4c(c3)n(CCC(C)(C)O)c(=O)n4C)c(F)cc2C#N)C[C@H](O)C1(F)F [Compound 82, 2-((3S,5R)-4,4-difluoro-3-hydroxy-5-methylpiperidin-1-yl)-5-fluoro-6-((3-(3-hydroxy-3-methylbutyl)-1-methyl-2-oxo-2,3-dihydro-1H-benzo[d]imidazol-5-yl)amino)nicotinonitrile]	
> 400	C[C@@H]1CN(c2nc(Nc3ccc4c(c3)n(C[C@H]3CNC(=O)O3)c(=O)n4C)c(F)cc2C#N)C[C@H](N)C1(F)F [Compound 84, 2-((3S,5R)-3-amino-4,4-difluoro-5-methylpiperidin-1-yl)-5-fluoro-6-((1-methyl-2-oxo-3-(((R)-2-oxooxazolidin-5-yl)methyl)-2,3-dihydro-1H-benzo[d]imidazol-5-yl)amino)nicotinonitrile]	
2	CNC(=O)COc1cc2cc(Nc3nc(N4C[C@@H](C)C(F)(F)[C@@H](C)C4)c(C#N)cc3Cl)ccc2n(CCN(C)C)c1=O [Compound 11, 2-((6-((3-Chloro-5-cyano-6-((3R,5S)-4,4-difluoro-3,5-dimethylpiperidin-1-yl)pyridin-2-yl)amino)-1-(2-(dimethylamino)ethyl)-2-oxo-1,2-dihydroquinolin-3-yl)oxy)-N-methylacetamide]	
41	CNC(=O)COc1cc2cc(Nc3nc(N4C[C@@H](C)C[C@@H](N)C4)c(C#N)cc3Cl)ccc2n(C)c1=O [Compound 39, 2-((6-((6-((3R,5S)-3-Amino-5-methylpiperidin-1-yl)-3-chloro-5-cyanopyridin-2-yl)amino)-1-methyl-2-oxo-1,2-dihydroquinolin-3-yl)oxy)-N-methylacetamide]	
4	CNCC(O)Cn1c(=O)c(OCC(=O)NC)cc2cc(Nc3nc(N4C[C@@H](C)C(F)[C@@H](C)C4)c(C#N)cc3Cl)ccc21 (stereo partly drawn) [Compound 67, 2-((6-((3-Chloro-5-cyano-6-((3S,4S,5R)-4-fluoro-3,5-dimethylpiperidin-1-yl)pyridin-2-yl)amino)-1-(2-hydroxy-3-(methylamino)propyl)-2-oxo-1,2-dihydroquinolin-3-yl)oxy)-N-methylacetamide]	

Reference: US20250074890A1, “CYANOPYRIDINE AND CYANOPYRIMIDINE BCL6 DEGRADERS” (DANA-FARBER CANCER INSTITUTE, INC., priority 2021, published 2025)
